In patent US20230285321A1, “COMPOSITIONS AND METHODS USING A COMBINATION OF AUTOPHAGY INDUCER AND HIGH PROTEIN FOR INDUCTION OF AUTOPHAGY” (SOCIETE DES PRODUITS NESTLE S.A., priority 2018, published 2023):

Test system: LC3-II protein (muscle autophagy) in skeletal muscle (quadriceps)
Assay: LC3-II western blot (normalized to GAPDH) in quadriceps of mice fed defined diets, with or without autophagy inducer in drinking water
Assay type: in vivo, C57b16/J mice
Conditions: 4 weeks ad libitum, 3 mM in drinking water
Description: 10-15 week-old C57b16/J mice were fed during ad libitum for 4 weeks with one of: a standard diet, a diet rich in proteins and poor in carbohydrates (high protein isocaloric), or a diet poor in proteins and rich in carbohydrates (low protein isocaloric). Each group was treated or not with 3 mM of autophagy inducer (e.g., spermidine) in the drinking water. Standard diet was composed of 16% fats (Soybean oil), 20% proteins (casein) and 64% carbohydrates (40% cornstarch, 14% dextrinized cornstarch, 10% sucrose). Low protein diet was composed of 16% fats (Soybean oil), 5% proteins (casein) and 79% carbohydrates (62% cornstarch, 10% dextrinized cornstarch, 7% sucrose). […]
Total protein lysates were extracted from 30-50 mg of tissues homogenized in 20 ml/g of RIPA buffer (150 mM sodium chloride, 50 mM Tris pH: 8, 1% Triton X-100, 0.5% deoxycolate, 0.1% SDS, protease inhibitors cocktail) with a tissue dissociator (gentleMACS Miltenyi Biotec). Protein concentration was determined by BCA assay, and samples were prepared adding 4X LDS sample buffer (Invitrogen). […] Membranes were incubated with LC3 (Novus Biologicals 2220) and GAPDH (Cell Signaling 2118) antibodies and detected with ECL substrates (Pierce). Protein quantification was performed by densitometric analysis of images using ImageJ software. […]

NCCCCNCCCN [spermidine]
muscle autophagy (LC3-II protein amount normalized to GAPDH) (high-protein isocaloric diet (60% proteins), ***p<0.001): synergistically induces muscle autophagy | muscle autophagy (LC3-II protein amount normalized to GAPDH) (low protein isocaloric diet (5% proteins)): inactive
